Source: patent US20030027141A1, “Combinatorial oligonucleotide PCR: a method for rapid, global expression analysis” (Board of Regents, The University of Texas System, priority 1999, published 2003)

Experiments:
[1] = tested on: HME87 line of normal human mammary epithelial cells; assay: Cell cycle parameters after BPDE treatment; type: cell-based
Description: Data for several genes whose expression did change at one or more time points is listed in Table 11 with two prominent examples shown in FIG. 20. The most dramatic change was in the expression of the transcription factor ATF3, which increased 8-9 fold at 4 and 10 h, then dropped to a 2.4-fold increase at 24 h. Changes in ATF3 expression in response to damage induced by BPDE or related compounds have not previously been described, and it will be very interesting to determine both the mechanism and the consequences of this induction. The p21/WAF1 gene, a downstream target of p53, is a mediator of G1 arrest in response to DNA damage (Levine, 1997). […] Thus, the COP analyses performed in this system have given a variety of clues concerning mechanisms operative in cells soon after BPDE treatment.

[2] = tested on: HME87 line of normal human mammary epithelial cells; assay: DNA damage in BPDE-treated cells; type: cell-based; details: 30 min BPDE treatment
Description: Control cultures were treated with tetrahydrofuran only.

[3] = tested on: HME87 line of normal human mammary epithelial cells; assay: COP analysis of gene expression after carcinogen (BPDE) treatment; type: cell-based
[4] = tested on: HME87 line of normal human mammary epithelial cells; details: 30 min BPDE treatment; for at least 48 h
[5] = at one or more time points after BPDE treatment

SMILES: OC1c2cc3ccc4cccc5ccc(c2C2OC2C1O)c3c45 (racemic) [BPDE, ±7r,8t-dihydroxy-9,10t-epoxy-7,8,9,10-tetrahydro-benzo[a]pyrene]
- G1 arrest ([1]; 4 and 10 h after BPDE treatment): no G1 arrest
- G1 arrest ([1]; by 24 h after BPDE treatment): appear to be a G1 arrest
- DNA damage in the treated cells [2]: induces a high level of DNA damage
- ACTB expression E/C ([3]; 4 h after BPDE treatment): 1.1 ± 0.2
- ATF3 expression E/C ([3]; 4 h after BPDE treatment): 7.8 ± 4.0
- Beclin expression E/C ([3]; 4 h after BPDE treatment): 2.1 ± 1.4
- CEBPE expression E/C ([3]; 4 h after BPDE treatment): 0.9 ± 0.3
- GADD45 expression E/C ([3]; 4 h after BPDE treatment): 2.1 ± 0.7
- LMNA expression E/C ([3]; 4 h after BPDE treatment): 0.7 ± 0.2
- RPL23a expression E/C ([3]; 4 h after BPDE treatment): 0.6 ± 0.1
- RPL30 expression E/C ([3]; 4 h after BPDE treatment): 0.8 ± 0.1
- RPL35 expression E/C ([3]; 4 h after BPDE treatment): 1.2 ± 0.3
- RPP1 expression E/C ([3]; 4 h after BPDE treatment): 1.4 ± 0.1
- RPS7 expression E/C ([3]; 4 h after BPDE treatment): 1.1 ± 0.2
- RPS15a expression E/C ([3]; 4 h after BPDE treatment): 1.0 ± 0.3
- RPS26 expression E/C ([3]; 4 h after BPDE treatment): 1.2 ± 0.3
- RPS29 expression E/C ([3]; 4 h after BPDE treatment): 1.1 ± 0.2
- TP53 expression E/C ([3]; 4 h after BPDE treatment): 1.1 ± 0.4
- p21 expression E/C ([3]; 4 h after BPDE treatment): 1.0 ± 0.1
- RPS27 expression E/C ([3]; 4 h after BPDE treatment, E=BPDE, C=solvent only): 0.9 ± 0.3
- ACTB expression E/C ([3]; 10 h after BPDE treatment): 0.9 ± 0.2
- ATF3 expression E/C ([3]; 10 h after BPDE treatment): 9.2 ± 3.9
- BTF3 expression E/C ([3]; 10 h after BPDE treatment): 1.0 ± 0.2
- Beclin expression E/C ([3]; 10 h after BPDE treatment): 2.0 ± 1.1
- GADD45 expression E/C ([3]; 10 h after BPDE treatment): 1.9 ± 0.7
- LMNA expression E/C ([3]; 10 h after BPDE treatment): 1.1 ± 0.3
- PGK expression E/C ([3]; 10 h after BPDE treatment): 1.0 ± 0.2
- RPL23a expression E/C ([3]; 10 h after BPDE treatment): 1.1 ± 0.3
- RPL30 expression E/C ([3]; 10 h after BPDE treatment): 1.0 ± 0.1
- RPL35 expression E/C ([3]; 10 h after BPDE treatment): 1.1 ± 0.4
- RPP1 expression E/C ([3]; 10 h after BPDE treatment): 1.0 ± 0.4
- RPS7 expression E/C ([3]; 10 h after BPDE treatment): 1.4 ± 0.5
- RPS15a expression E/C ([3]; 10 h after BPDE treatment): 1.4 ± 0.6
- RPS16 expression E/C ([3]; 10 h after BPDE treatment): 0.8 ± 0.1
- RPS26 expression E/C ([3]; 10 h after BPDE treatment): 1.3 ± 0.5
- RPS27 expression E/C ([3]; 10 h after BPDE treatment): 1.2 ± 0.4
- RPS29 expression E/C ([3]; 10 h after BPDE treatment): 1.3 ± 0.6
- TP53 expression E/C ([3]; 10 h after BPDE treatment): 0.9 ± 0.1
- p21 expression E/C ([3]; 10 h after BPDE treatment): 1.1 ± 0.2
- ACTB expression E/C ([3]; 24 h after BPDE treatment): 1.3 ± 0.4
- ATF3 expression E/C ([3]; 24 h after BPDE treatment): 2.4 ± 0.7
- BTF3 expression E/C ([3]; 24 h after BPDE treatment): 0.9 ± 0.2
- CEBPE expression E/C ([3]; 24 h after BPDE treatment): 1.0 ± 0.3
- GADD45 expression E/C ([3]; 24 h after BPDE treatment): 0.8 ± 0.4
- IMPD expression E/C ([3]; 24 h after BPDE treatment): 0.8 ± 0.2
- LMNA expression E/C ([3]; 24 h after BPDE treatment): 0.9 ± 0.3
- MYC expression E/C ([3]; 24 h after BPDE treatment): 1.2 ± 0.5
- NFKB expression E/C ([3]; 24 h after BPDE treatment): 1.5 ± 0.4
- PGK expression E/C ([3]; 24 h after BPDE treatment): 1.1 ± 0.2
- RPL23a expression E/C ([3]; 24 h after BPDE treatment): 1.0 ± 0.2
- RPL30 expression E/C ([3]; 24 h after BPDE treatment): 1.0 ± 0.2
- RPL35 expression E/C ([3]; 24 h after BPDE treatment): 1.2 ± 0.6
- RPP1 expression E/C ([3]; 24 h after BPDE treatment): 1.7 ± 1.0
- RPS7 expression E/C ([3]; 24 h after BPDE treatment): 1.7 ± 0.8
- RPS15a expression E/C ([3]; 24 h after BPDE treatment): 1.2 ± 0.3
- RPS16 expression E/C ([3]; 24 h after BPDE treatment): 0.9 ± 0.2
- RPS26 expression E/C ([3]; 24 h after BPDE treatment): 1.5 ± 0.6
- RPS27 expression E/C ([3]; 24 h after BPDE treatment): 0.9 ± 0.2
- RPS29 expression E/C ([3]; 24 h after BPDE treatment): 1.7 ± 1.2
- SL1 expression E/C ([3]; 24 h after BPDE treatment): 1.0 ± 0.3
- TP53 expression E/C ([3]; 24 h after BPDE treatment): 0.8 ± 0.3
- p21 expression E/C ([3]; 24 h after BPDE treatment): 2.3 ± 0.7
- increase in expression of transcription factor ATF3 ([3]; at 4 and 10 h after BPDE treatment): 8-9 fold
- increase in expression of transcription factor ATF3 ([3]; at 24 h after BPDE treatment): 2.4 fold
- increase of p21/WAF1 gene expression ([3]; at 24 h after BPDE treatment): about 2 fold
- expression of beclin (protein related to apoptosis) [3, 5]: upregulated
- expression of transcription factor CP2 [3, 5]: upregulated
- induction of p21/WAF1 gene ([3]; early times after BPDE treatment): not induced
- expression of the majority of over 450 genes analyzed ([3]; one or more time points after BPDE treatment): no significant changes in expression
- toxicity of treatment [4]: not demonstrably toxic
